Assay results published in the supplement of paper PMC10883282.
± gives the standard deviation of the averaged measurements.

Tested on: SW982
Test: relative viability vs DMSO control (72 h) (fraction); higher = more viable cells
In short: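 Sarcoma cell lines were seeded in 384-well plates at densities set to reach 80–90% confluence. After 24 h, 2.5 µl of serially diluted compound was added (source plates 10 mM to 0.0002 mM), and plates were held 72 h at 37 °C, 5% CO2, with 0.1% DMSO vehicle and a 5 µM positive control. Relative viability came from ATPLite readings as percent growth, averaged over up to triplicate wells. Data were rescaled so full viability equals 1 and none equals 0.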

`C=CC(=O)Nc1cccc(Oc2nc(Nc3ccc(N4CCN(C)CC4)cc3)nc3ccsc23)c1` [Olmutinib] showed a relative viability (0.00017 µM) of 1.01 ± 0.024, a relative viability (0.00051 µM) of 1.01 ± 0.02 and a relative viability (0.00152 µM) of 0.98 ± 0.01. It also gave a relative viability (0.00457 µM) of 1 ± 0.028, a relative viability (0.01372 µM) of 1.02 ± 0.016 and a relative viability (0.04115 µM) of 1.01 ± 0.025. For the same compound, the relative viability (0.1235 µM) was 1 ± 0.011, the relative viability (0.3704 µM) was 0.969 ± 0.077 and the relative viability (1.111 µM) was 0.822 ± 0.065. For the same compound, the relative viability (3.333 µM) was 0.663 ± 0.029 and the relative viability (10 µM) was 0.317 ± 0.033.

With `COc1cc2c(Oc3ccc4[nH]c(C)cc4c3F)ncnc2cc1OCCCN1CCCC1` [Cediranib] the relative viability (0.00017 µM) was 1.04 ± 0.034, the relative viability (0.00051 µM) was 1.058 ± 0.007 and the relative viability (0.00152 µM) was 1.06 ± 0.044. The relative viability (0.00457 µM) was 1.06 ± 0.027, the relative viability (0.01372 µM) was 1.06 ± 0.031 and the relative viability (0.04115 µM) was 1.04 ± 0.013. For the same compound, the relative viability (0.1235 µM) was 1.06 ± 0.029, the relative viability (0.3704 µM) was 0.967 ± 0.07 and the relative viability (1.111 µM) was 0.914 ± 0.077. It also gave a relative viability (3.333 µM) of 0.959 ± 0.012 and a relative viability (10 µM) of 0.961 ± 0.01.

With `Cc1cnc(Nc2ccc(OCCN3CCCC3)cc2)nc1Nc1cccc(S(=O)(=O)NC(C)(C)C)c1` [Fedratinib] the relative viability (0.00017 µM) was 1.03 ± 0.012, the relative viability (0.00051 µM) was 1.03 ± 0.033 and the relative viability (0.00152 µM) was 1.07 ± 0.021. It also gave a relative viability (0.00457 µM) of 1.07 ± 0.016, a relative viability (0.01372 µM) of 1.088 ± 0.0018 and a relative viability (0.04115 µM) of 1.06 ± 0.024. It also gave a relative viability (0.1235 µM) of 0.846 ± 0.052, a relative viability (0.3704 µM) of 0.394 ± 0.013 and a relative viability (1.111 µM) of 0.161 ± 0.0068. For the same compound, the relative viability (3.333 µM) was 0.0074 ± 0.0013 and the relative viability (10 µM) was 0.00487 ± 0.00038.

For `CCCS(=O)(=O)Nc1ccc(F)c(C(=O)c2c[nH]c3ncc(-c4ccc(Cl)cc4)cc23)c1F` [Vemurafenib], the relative viability (0.00017 µM) was 1.04 ± 0.063, the relative viability (0.00051 µM) was 1.08 ± 0.048 and the relative viability (0.00152 µM) was 1.05 ± 0.027. The relative viability (0.00457 µM) was 1.03 ± 0.029, the relative viability (0.01372 µM) was 1.06 ± 0.053 and the relative viability (0.04115 µM) was 1.02 ± 0.045. It also gave a relative viability (0.1235 µM) of 0.9867 ± 0.0019, a relative viability (0.3704 µM) of 0.988 ± 0.039 and a relative viability (1.111 µM) of 1.01 ± 0.029. For the same compound, the relative viability (3.333 µM) was 0.794 ± 0.035 and the relative viability (10 µM) was 0.532 ± 0.02.

For `Cn1cnc2c(F)c(Nc3ccc(Br)cc3F)c(C(=O)NOCCO)cc21` [Binimetinib], the relative viability (0.00017 µM) was 0.974 ± 0.046, the relative viability (0.00051 µM) was 1.04 ± 0.019 and the relative viability (0.00152 µM) was 1.07 ± 0.018. The relative viability (0.00457 µM) was 0.981 ± 0.056, the relative viability (0.01372 µM) was 0.99 ± 0.05 and the relative viability (0.04115 µM) was 0.92 ± 0.058. For the same compound, the relative viability (0.1235 µM) was 0.833 ± 0.043, the relative viability (0.3704 µM) was 0.831 ± 0.051 and the relative viability (1.111 µM) was 0.809 ± 0.038. The relative viability (3.333 µM) was 0.786 ± 0.035 and the relative viability (10 µM) was 0.765 ± 0.042.

Compound `COc1c(OCCCN2CCOCC2)ccc2c1N=C(NC(=O)c1cnc(N)nc1)N1CCN=C21` [Copanlisib] has a relative viability (0.00017 µM) of 1.04 ± 0.024, a relative viability (0.00051 µM) of 1.02 ± 0.022 and a relative viability (0.00152 µM) of 1.04 ± 0.043. The relative viability (0.00457 µM) was 0.881 ± 0.016, the relative viability (0.01372 µM) was 0.797 ± 0.032 and the relative viability (0.04115 µM) was 0.704 ± 0.029. The relative viability (0.1235 µM) was 0.529 ± 0.01, the relative viability (0.3704 µM) was 0.391 ± 0.019 and the relative viability (1.111 µM) was 0.213 ± 0.011. The relative viability (3.333 µM) was 0.177 ± 0.0066 and the relative viability (10 µM) was 0.177 ± 0.0061.

For `COc1cc2nccc(Oc3ccc(NC(=O)Nc4cc(C)on4)c(Cl)c3)c2cc1OC` [Tivozanib], the relative viability (0.00017 µM) was 1.06 ± 0.039, the relative viability (0.00051 µM) was 1.07 ± 0.048 and the relative viability (0.00152 µM) was 1.06 ± 0.021. It also gave a relative viability (0.00457 µM) of 1.05 ± 0.037, a relative viability (0.01372 µM) of 1.08 ± 0.038 and a relative viability (0.04115 µM) of 1.07 ± 0.033. For the same compound, the relative viability (0.1235 µM) was 1.08 ± 0.017, the relative viability (0.3704 µM) was 1.08 ± 0.046 and the relative viability (1.111 µM) was 1.07 ± 0.058. For the same compound, the relative viability (3.333 µM) was 0.985 ± 0.029 and the relative viability (10 µM) was 0.571 ± 0.021.

Compound `CC[C@H](Nc1ncnc2[nH]cnc12)c1nc2cccc(F)c2c(=O)n1-c1ccccc1` [Idelalisib] has a relative viability (0.00017 µM) of 1.06 ± 0.033, a relative viability (0.00051 µM) of 1.06 ± 0.039 and a relative viability (0.00152 µM) of 1.05 ± 0.039. It also gave a relative viability (0.00457 µM) of 1.07 ± 0.027, a relative viability (0.01372 µM) of 1.07 ± 0.055 and a relative viability (0.04115 µM) of 1.08 ± 0.033. For the same compound, the relative viability (0.1235 µM) was 1.07 ± 0.04, the relative viability (0.3704 µM) was 1.067 ± 0.0099 and the relative viability (1.111 µM) was 1 ± 0.029. It also gave a relative viability (3.333 µM) of 0.948 ± 0.074 and a relative viability (10 µM) of 0.778 ± 0.011.

In the case of `Cc1cc(C)c(/C=C2\C(=O)Nc3ccccc32)[nH]1` [Semaxanib], the relative viability (0.00017 µM) is reported as 1.02 ± 0.03, the relative viability (0.00051 µM) is reported as 1.02 ± 0.031 and the relative viability (0.00152 µM) is reported as 0.997 ± 0.022. It also gave a relative viability (0.00457 µM) of 0.9929 ± 0.0051, a relative viability (0.01372 µM) of 0.968 ± 0.011 and a relative viability (0.04115 µM) of 0.96 ± 0.029. For the same compound, the relative viability (0.1235 µM) was 0.947 ± 0.03, the relative viability (0.3704 µM) was 0.933 ± 0.011 and the relative viability (1.111 µM) was 0.904 ± 0.02. The relative viability (3.333 µM) was 0.879 ± 0.028 and the relative viability (10 µM) was 0.821 ± 0.041.
